What was measured:
[1] = molecular target: T1, Mitogen-activated protein kinase kinase kinase 2 (Homo sapiens) (UniProt Q9Y2U5); experiment: Inhibition of human recombinant MAP3K2 at 15 nM related to control ULK1
T1 sequence (whole entry): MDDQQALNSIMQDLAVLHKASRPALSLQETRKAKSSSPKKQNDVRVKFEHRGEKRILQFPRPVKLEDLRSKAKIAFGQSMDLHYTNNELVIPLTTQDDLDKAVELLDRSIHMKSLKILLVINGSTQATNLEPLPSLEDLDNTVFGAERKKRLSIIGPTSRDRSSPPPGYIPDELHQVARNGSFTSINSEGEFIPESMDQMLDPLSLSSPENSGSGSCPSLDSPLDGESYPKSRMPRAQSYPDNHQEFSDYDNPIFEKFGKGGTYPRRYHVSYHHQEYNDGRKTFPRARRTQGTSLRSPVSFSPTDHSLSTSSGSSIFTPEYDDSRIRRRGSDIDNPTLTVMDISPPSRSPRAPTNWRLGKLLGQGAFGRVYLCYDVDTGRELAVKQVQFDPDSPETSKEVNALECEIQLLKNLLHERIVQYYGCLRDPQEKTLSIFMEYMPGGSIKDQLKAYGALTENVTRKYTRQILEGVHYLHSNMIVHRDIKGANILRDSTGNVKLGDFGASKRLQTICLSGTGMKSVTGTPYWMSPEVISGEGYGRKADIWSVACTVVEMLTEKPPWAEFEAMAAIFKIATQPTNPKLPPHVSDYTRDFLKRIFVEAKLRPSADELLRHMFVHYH

[2] = molecular target: T2, MAP kinase-activated protein kinase 5 (Homo sapiens) (UniProt Q8IW41); experiment: Inhibition of human recombinant MAPKAPK5 at 15 nM in presence of ATP by radiometric assay relative to control
T2 sequence (whole entry): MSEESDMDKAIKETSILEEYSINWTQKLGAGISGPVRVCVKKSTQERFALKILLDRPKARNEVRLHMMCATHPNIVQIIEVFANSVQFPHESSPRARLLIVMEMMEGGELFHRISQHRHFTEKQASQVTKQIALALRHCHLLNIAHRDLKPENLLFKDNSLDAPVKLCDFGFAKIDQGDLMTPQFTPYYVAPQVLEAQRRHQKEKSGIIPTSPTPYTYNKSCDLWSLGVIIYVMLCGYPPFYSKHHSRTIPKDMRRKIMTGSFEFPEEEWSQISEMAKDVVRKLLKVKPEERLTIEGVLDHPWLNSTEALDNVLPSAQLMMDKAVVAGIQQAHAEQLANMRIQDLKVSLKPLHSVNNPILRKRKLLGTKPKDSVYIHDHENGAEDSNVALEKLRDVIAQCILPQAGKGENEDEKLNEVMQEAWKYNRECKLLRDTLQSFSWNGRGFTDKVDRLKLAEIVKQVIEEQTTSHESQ

[3] = molecular target: Mitogen-activated protein kinase 11 (Homo sapiens) (UniProt Q15759); experiment: Inhibition of human recombinant p38beta at 15 nM related to control ULK1
[4] = molecular target: Homeodomain-interacting protein kinase 2 (Homo sapiens) (UniProt Q9H2X6); experiment: Inhibition of human recombinant HIPK2 at 15 nM related to control ULK1
[5] = molecular target: T3, MAPK/MAK/MRK overlapping kinase (Homo sapiens) (UniProt Q9UQ07); experiment: Inhibition of human recombinant MOK at 15 nM in presence of ATP by radiometric assay relative to control
T3 sequence (whole entry): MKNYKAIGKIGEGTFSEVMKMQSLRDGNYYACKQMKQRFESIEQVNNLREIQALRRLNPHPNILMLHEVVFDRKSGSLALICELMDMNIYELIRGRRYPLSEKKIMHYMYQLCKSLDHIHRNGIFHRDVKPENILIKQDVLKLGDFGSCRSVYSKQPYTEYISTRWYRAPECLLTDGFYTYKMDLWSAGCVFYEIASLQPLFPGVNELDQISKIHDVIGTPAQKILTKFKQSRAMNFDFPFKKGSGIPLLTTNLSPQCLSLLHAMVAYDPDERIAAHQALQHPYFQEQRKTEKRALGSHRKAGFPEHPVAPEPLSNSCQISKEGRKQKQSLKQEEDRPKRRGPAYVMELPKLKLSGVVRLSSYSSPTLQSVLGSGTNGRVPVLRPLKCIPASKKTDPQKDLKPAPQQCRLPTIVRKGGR

[6] = molecular target: Serine/threonine-protein kinase WNK2 (Homo sapiens) (UniProt Q9Y3S1); experiment: Inhibition of human recombinant Wnk2 at 40 nM related to control ULK1
[7] = molecular target: T4, Eukaryotic translation initiation factor 2-alpha kinase 3 (Homo sapiens) (UniProt Q9NZJ5); experiment: Inhibition of human recombinant PEK at 40 nM in presence of ATP by radiometric assay relative to control
T4 sequence (whole entry): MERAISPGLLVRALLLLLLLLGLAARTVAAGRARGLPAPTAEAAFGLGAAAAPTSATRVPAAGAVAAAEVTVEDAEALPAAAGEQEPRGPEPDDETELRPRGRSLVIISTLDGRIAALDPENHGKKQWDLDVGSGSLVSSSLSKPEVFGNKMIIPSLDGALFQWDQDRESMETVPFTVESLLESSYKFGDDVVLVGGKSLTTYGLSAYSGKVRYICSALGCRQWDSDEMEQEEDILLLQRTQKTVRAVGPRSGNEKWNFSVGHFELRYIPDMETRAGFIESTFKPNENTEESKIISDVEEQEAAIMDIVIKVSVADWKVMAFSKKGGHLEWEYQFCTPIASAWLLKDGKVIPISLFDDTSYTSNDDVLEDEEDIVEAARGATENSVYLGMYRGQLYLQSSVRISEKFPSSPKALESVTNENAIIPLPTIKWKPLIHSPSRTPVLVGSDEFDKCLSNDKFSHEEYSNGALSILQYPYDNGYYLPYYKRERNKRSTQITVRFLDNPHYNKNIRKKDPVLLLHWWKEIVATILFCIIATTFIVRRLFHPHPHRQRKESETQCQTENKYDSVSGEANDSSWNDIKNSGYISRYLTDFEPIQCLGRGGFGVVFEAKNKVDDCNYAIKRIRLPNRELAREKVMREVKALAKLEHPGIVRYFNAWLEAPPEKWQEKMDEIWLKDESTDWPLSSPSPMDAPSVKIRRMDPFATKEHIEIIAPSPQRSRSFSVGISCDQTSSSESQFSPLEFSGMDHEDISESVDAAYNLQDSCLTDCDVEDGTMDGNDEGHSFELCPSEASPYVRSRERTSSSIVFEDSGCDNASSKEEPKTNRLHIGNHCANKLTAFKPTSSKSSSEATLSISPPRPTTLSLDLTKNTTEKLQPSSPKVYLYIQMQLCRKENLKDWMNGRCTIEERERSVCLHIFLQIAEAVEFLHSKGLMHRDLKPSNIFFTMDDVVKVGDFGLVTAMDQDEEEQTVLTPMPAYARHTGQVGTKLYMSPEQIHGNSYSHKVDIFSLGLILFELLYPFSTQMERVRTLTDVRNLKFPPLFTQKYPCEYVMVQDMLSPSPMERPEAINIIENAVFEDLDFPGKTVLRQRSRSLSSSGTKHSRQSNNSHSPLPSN

Serine/threonine-protein kinase WNK2 (Homo sapiens), sequence (Q9Y3S1 whole entry): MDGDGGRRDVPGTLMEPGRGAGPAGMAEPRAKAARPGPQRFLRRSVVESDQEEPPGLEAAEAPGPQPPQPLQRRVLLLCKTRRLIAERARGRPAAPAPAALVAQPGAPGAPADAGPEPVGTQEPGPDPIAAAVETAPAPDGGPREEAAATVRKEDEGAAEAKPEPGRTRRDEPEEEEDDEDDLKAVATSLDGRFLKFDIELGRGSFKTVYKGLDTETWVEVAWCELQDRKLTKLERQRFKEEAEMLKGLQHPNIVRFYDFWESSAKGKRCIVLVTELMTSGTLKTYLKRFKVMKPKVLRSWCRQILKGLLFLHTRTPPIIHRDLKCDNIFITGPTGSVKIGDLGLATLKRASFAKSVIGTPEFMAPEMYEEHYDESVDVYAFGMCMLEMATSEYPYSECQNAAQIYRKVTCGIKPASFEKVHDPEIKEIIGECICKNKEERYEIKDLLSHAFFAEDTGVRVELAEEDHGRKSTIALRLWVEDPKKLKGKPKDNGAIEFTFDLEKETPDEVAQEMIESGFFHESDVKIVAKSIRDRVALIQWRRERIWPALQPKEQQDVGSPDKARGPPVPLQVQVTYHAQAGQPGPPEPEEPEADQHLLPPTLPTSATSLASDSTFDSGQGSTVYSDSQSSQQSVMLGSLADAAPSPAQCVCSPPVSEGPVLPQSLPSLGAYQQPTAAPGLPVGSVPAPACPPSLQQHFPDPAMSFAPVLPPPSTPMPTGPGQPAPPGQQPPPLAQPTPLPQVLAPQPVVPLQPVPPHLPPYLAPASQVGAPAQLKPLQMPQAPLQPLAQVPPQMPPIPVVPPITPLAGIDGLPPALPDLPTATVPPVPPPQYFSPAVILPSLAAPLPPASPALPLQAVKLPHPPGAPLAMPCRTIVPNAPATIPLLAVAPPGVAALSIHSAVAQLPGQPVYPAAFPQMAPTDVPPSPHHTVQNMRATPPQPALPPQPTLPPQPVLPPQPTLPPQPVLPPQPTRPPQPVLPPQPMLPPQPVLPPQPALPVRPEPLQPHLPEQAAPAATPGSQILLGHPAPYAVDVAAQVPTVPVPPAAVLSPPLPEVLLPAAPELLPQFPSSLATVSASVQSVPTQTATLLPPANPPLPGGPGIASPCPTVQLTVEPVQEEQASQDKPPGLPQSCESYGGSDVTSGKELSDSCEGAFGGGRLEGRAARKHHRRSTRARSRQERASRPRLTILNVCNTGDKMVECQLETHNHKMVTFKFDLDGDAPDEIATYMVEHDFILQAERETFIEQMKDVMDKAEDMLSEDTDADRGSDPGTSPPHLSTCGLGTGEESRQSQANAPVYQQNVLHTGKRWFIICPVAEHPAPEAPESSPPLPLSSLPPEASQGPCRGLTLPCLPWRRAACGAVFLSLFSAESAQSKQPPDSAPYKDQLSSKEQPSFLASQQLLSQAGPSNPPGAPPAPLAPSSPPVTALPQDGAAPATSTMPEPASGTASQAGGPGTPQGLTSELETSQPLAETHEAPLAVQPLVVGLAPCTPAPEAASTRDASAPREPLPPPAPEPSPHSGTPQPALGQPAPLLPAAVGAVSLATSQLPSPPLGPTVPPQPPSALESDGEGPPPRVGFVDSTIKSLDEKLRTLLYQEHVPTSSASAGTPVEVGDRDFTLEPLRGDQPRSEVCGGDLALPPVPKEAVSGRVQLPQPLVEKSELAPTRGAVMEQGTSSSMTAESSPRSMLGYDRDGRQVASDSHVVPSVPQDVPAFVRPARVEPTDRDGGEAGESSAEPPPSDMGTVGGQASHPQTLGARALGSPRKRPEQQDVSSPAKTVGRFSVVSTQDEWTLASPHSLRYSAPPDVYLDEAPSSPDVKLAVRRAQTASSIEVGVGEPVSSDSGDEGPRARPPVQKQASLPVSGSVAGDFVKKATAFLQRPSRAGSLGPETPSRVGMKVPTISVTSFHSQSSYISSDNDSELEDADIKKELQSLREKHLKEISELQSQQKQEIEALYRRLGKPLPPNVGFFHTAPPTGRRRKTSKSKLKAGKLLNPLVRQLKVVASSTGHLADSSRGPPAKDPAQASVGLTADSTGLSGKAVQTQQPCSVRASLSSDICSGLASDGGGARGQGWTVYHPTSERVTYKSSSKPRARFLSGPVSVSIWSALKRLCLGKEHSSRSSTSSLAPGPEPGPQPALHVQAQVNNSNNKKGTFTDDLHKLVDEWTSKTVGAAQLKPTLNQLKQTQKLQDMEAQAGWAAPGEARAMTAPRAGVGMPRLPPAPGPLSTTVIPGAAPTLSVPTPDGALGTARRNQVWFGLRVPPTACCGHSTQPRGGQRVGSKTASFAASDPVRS
Mitogen-activated protein kinase 11 (Homo sapiens), sequence (Q15759 whole entry): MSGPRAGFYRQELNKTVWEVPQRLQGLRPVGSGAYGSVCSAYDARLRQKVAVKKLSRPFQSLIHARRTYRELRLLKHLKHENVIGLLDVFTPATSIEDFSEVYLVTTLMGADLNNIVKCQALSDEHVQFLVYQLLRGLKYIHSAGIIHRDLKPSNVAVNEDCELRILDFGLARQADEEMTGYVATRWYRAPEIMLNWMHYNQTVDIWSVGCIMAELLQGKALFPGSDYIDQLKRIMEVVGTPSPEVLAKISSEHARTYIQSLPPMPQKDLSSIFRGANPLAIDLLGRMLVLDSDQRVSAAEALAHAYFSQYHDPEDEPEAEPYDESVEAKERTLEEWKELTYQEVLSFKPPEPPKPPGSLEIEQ
Homeodomain-interacting protein kinase 2 (Homo sapiens), sequence (Q9H2X6 whole entry, looked up): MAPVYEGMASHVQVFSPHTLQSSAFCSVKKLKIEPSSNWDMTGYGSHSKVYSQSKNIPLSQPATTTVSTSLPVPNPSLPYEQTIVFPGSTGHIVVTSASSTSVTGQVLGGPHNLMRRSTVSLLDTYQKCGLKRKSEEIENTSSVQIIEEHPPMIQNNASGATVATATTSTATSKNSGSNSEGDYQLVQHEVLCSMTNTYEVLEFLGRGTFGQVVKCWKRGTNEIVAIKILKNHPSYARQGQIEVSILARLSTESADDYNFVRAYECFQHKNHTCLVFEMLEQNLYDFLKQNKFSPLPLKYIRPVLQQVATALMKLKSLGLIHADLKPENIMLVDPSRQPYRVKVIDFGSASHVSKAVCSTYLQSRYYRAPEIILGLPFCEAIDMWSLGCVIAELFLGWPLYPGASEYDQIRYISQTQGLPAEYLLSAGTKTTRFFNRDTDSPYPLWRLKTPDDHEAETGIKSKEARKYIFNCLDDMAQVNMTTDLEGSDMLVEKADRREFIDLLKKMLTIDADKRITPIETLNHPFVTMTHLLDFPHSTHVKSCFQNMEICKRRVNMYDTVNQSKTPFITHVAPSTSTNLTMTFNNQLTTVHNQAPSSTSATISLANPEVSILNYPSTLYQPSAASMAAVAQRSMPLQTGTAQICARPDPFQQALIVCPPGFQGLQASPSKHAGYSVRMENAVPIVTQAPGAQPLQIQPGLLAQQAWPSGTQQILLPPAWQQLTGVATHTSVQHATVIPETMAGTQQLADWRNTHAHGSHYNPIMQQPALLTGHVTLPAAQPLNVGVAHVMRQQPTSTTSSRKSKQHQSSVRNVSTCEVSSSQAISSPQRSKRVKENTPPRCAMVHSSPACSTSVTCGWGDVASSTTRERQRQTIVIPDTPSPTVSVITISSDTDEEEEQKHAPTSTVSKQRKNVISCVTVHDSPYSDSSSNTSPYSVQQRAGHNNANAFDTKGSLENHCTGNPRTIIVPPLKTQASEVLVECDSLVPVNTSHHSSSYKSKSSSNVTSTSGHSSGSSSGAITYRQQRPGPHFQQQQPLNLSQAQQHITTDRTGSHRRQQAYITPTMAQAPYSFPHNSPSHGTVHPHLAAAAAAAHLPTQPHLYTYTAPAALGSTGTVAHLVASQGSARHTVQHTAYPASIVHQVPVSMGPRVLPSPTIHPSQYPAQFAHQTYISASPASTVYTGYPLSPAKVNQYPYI

Structure (SMILES) | fold change (FC) [1] | inhibition [2] | fold change (FC) [3] | fold change (FC) [4] | inhibition [5] | fold change (FC) [6] | inhibition [7]
CC(C)[C@H](NC(=O)c1cc(-c2cnn3cc(-c4ccc(OCCN5CCCCC5)cc4)cnc23)cs1)C(F)(F)F | 0.03 | 0% | 0.01 | 0.03 | 5% | – | –
O=C(N[C@@H](C1CC1)C(F)(F)F)c1cc(-c2cnn3cc(-c4ccc(F)cc4)cnc23)cs1 | – | – | – | – | – | 0.04 | 0%

Reference: ChEMBL document CHEMBL5653631, “A Potent and Selective ULK1 Inhibitor Suppresses Autophagy and Sensitizes Cancer Cells to Nutrient Stress” (iScience, 2018)
